Legend:
[1] = molecular target: Tyrosine-protein kinase ABL1 (Homo sapiens) (UniProt P00519); assay: Inhibition of recombinant human His-tagged full length Abl expressed in baculovirus expression system using Tyr 02 as substrate at 0.1 uM incubated for 60 mins by Z'-Lyte assay relative to control
[2] = molecular target: T1, Aurora kinase A (Homo sapiens) (UniProt O14965); assay: Inhibition of recombinant human His-tagged full length Aurora A expressed in baculovirus expression system using Ser/Thr 01 as substrate at 0.1 uM incubated for 60 mins by Z'-Lyte assay relative to control
T1 sequence (whole entry): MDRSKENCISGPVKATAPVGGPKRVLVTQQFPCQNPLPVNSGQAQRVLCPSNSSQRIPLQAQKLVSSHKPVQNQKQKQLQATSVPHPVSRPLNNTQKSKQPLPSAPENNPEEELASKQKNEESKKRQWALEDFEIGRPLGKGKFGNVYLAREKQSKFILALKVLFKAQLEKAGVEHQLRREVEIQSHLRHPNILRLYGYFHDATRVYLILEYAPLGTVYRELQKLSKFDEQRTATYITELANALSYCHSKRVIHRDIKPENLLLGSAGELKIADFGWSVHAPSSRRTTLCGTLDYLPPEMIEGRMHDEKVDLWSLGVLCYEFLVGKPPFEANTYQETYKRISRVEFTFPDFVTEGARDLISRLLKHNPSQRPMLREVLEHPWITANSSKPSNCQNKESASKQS

[3] = molecular target: Death-associated protein kinase 1 (Homo sapiens) (UniProt P53355); assay: Inhibition of recombinant human N-terminal GST-tagged DAPK1 (1 to 363 residues) expressed in baculovirus expression system using ZIPtide as substrate at 0.1 uM incubated for 60 mins by Adapta assay relative to control
[4] = molecular target: Focal adhesion kinase 1 (Homo sapiens) (UniProt Q05397); assay: Inhibition of recombinant human GST-tagged full length FAK expressed in baculovirus expression system using Tyr 07 as substrate at 0.1 uM incubated for 60 mins by Z'-Lyte assay relative to control
[5] = molecular target: Casein kinase I isoform epsilon (Homo sapiens) (UniProt P49674); assay: Inhibition of recombinant human His-tagged full length CK1epsilon expressed in baculovirus expression system using Ser/Thr 11 as substrate at 0.1 uM incubated for 60 mins by Z'-Lyte assay relative to control
[6] = molecular target: T2, Serine/threonine-protein kinase TAO2 (Homo sapiens) (UniProt Q9UL54); assay: Inhibition of recombinant human GST-tagged TAO2 (1 to 314 residues) expressed in baculovirus expression system using Ser/Thr 07 as substrate at 0.1 uM incubated for 60 mins by Z'-Lyte assay relative to control
T2 sequence (whole entry): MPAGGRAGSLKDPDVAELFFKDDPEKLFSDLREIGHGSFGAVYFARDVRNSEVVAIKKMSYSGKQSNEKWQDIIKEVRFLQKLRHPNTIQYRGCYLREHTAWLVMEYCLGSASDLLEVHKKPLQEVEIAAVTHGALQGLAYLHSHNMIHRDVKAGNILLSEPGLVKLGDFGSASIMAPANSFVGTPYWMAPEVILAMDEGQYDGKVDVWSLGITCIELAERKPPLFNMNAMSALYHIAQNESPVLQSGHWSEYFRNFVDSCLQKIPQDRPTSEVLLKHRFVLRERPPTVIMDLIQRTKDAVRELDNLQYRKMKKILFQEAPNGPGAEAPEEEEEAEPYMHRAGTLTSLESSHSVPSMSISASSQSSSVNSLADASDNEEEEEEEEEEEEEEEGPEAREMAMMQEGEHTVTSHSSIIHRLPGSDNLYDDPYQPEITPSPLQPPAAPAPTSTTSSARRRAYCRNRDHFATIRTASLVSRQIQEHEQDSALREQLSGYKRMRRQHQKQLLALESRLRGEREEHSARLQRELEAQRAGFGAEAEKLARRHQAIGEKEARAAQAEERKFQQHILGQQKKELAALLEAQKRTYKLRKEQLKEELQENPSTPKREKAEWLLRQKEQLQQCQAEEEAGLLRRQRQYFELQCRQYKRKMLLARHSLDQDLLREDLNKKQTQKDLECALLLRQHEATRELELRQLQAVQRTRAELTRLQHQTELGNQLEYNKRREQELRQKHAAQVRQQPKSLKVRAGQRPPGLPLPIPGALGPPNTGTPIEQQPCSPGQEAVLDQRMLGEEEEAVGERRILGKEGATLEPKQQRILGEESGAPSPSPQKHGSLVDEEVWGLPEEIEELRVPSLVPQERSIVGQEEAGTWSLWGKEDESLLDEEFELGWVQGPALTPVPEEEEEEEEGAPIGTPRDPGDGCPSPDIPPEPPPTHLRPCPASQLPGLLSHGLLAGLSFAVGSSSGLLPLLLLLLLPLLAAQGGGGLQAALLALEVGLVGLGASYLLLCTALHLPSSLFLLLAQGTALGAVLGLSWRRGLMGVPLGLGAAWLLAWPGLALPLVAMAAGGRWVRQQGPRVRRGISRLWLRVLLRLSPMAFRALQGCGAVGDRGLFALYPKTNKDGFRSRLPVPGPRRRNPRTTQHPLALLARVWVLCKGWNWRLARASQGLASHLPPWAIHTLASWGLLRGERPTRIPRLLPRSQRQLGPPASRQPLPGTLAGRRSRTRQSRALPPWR

[7] = molecular target: Receptor tyrosine-protein kinase erbB-2 (Homo sapiens) (UniProt P04626); assay: Inhibition of recombinant human His-tagged ERBB2 (676 to 1255 residues) expressed in baculovirus expression system using Tyr 06 as substrate at 0.1 uM incubated for 60 mins by Z'-Lyte assay relative to control
[8] = molecular target: Serine/threonine-protein kinase mTOR (Homo sapiens) (UniProt P42345); assay: Inhibition of recombinant human GST-tagged mTOR (1360 to 2549 residues) expressed in Escherichia coli expression system using Ser/Thr 11 as substrate at 0.1 uM incubated for 60 mins by Z'-Lyte assay relative to control
[9] = molecular target: Fibroblast growth factor receptor 1 (Homo sapiens) (UniProt P11362); assay: Inhibition of recombinant human His-tagged FGFR1 (308 to 731 residues) expressed in baculovirus expression system using Tyr 01 as substrate at 0.1 uM incubated for 60 mins by Z'-Lyte assay relative to control
Janus Kinase (JAK) = Janus Kinase (JAK) (Homo sapiens, UniProt P52333+P23458+O60674+P29597); details: beas-2b
Description: Inhibition of JAK in human BEAS-2B cells assessed as reduction in IL13-induced STAT6 phosphorylation incubated for 1 hr followed by IL13 addition and measured after 15 mins by immunofluorescence assay

Tyrosine-protein kinase ABL1 (Homo sapiens), sequence (P00519 whole entry): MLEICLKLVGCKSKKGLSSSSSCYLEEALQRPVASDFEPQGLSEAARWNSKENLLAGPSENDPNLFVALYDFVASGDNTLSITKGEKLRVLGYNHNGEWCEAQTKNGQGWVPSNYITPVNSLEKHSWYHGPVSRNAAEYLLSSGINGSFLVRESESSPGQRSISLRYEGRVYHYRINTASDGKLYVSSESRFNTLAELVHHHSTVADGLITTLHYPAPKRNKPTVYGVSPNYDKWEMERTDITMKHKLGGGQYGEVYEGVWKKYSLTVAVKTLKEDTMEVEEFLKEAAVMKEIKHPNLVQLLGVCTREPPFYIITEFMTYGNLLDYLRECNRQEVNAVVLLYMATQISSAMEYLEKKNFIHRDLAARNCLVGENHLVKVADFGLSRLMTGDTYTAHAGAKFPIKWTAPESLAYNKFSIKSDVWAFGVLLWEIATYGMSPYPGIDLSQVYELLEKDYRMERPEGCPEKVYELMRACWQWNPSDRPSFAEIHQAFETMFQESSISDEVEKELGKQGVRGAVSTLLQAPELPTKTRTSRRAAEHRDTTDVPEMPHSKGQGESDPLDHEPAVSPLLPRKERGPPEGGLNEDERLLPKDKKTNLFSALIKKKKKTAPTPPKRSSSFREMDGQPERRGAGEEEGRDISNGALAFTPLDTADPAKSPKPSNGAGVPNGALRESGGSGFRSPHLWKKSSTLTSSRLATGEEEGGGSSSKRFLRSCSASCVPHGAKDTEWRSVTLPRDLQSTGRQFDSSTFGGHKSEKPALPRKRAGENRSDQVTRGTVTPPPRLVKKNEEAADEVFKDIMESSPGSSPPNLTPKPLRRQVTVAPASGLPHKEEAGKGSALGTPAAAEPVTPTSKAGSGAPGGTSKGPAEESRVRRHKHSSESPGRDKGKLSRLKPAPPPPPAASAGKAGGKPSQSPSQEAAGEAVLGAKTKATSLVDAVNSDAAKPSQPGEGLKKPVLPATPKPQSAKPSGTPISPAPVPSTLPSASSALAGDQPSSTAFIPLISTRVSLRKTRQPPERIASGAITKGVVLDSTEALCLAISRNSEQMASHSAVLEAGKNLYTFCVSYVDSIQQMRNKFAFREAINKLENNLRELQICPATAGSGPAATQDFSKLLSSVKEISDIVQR
Receptor tyrosine-protein kinase erbB-2 (Homo sapiens), sequence (P04626 whole entry, the tested form may be a part): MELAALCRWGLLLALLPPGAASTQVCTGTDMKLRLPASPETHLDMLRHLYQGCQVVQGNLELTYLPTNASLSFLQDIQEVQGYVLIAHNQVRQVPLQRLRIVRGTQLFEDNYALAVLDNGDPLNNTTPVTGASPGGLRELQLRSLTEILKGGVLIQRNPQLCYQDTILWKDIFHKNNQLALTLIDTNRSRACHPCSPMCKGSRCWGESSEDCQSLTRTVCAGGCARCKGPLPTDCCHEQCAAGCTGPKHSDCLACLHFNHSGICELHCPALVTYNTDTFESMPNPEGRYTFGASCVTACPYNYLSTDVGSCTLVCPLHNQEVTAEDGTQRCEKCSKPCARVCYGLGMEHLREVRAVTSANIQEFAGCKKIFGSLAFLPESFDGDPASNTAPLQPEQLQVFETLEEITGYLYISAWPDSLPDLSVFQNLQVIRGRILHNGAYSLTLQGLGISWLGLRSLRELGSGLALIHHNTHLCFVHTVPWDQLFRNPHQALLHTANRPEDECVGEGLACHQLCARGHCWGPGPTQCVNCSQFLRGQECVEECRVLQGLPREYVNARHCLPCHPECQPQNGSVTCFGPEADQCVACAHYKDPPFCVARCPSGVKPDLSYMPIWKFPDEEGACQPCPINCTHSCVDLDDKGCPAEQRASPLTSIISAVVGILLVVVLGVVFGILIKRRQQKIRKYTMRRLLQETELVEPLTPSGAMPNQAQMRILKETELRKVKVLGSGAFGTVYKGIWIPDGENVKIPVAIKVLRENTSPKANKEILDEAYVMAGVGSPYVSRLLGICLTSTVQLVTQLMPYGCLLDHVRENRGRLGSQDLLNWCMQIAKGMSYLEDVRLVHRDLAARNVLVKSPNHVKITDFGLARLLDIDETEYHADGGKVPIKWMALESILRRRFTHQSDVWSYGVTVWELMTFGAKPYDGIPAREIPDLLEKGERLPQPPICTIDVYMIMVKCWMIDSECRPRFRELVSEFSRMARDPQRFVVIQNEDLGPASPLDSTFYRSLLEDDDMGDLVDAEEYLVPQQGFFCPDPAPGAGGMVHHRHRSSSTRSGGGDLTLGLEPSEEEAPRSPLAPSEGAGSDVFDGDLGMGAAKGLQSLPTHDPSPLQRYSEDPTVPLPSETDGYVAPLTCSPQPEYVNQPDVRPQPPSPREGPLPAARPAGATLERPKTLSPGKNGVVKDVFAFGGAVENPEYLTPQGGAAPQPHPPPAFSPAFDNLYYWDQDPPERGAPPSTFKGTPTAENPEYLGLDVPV
Casein kinase I isoform epsilon (Homo sapiens), sequence (P49674 whole entry, looked up, the tested form may be a part, canonical isoform): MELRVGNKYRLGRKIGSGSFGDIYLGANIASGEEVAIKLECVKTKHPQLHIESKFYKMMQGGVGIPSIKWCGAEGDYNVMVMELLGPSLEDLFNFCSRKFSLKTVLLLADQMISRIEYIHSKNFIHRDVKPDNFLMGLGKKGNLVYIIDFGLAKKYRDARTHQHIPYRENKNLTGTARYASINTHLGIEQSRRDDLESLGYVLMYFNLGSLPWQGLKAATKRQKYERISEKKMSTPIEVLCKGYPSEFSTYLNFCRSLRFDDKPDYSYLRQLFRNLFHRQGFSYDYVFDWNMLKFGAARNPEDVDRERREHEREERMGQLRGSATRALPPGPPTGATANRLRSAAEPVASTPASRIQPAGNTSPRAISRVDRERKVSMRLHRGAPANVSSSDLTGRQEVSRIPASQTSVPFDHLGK
Fibroblast growth factor receptor 1 (Homo sapiens), sequence (P11362 22-822 limits assumed): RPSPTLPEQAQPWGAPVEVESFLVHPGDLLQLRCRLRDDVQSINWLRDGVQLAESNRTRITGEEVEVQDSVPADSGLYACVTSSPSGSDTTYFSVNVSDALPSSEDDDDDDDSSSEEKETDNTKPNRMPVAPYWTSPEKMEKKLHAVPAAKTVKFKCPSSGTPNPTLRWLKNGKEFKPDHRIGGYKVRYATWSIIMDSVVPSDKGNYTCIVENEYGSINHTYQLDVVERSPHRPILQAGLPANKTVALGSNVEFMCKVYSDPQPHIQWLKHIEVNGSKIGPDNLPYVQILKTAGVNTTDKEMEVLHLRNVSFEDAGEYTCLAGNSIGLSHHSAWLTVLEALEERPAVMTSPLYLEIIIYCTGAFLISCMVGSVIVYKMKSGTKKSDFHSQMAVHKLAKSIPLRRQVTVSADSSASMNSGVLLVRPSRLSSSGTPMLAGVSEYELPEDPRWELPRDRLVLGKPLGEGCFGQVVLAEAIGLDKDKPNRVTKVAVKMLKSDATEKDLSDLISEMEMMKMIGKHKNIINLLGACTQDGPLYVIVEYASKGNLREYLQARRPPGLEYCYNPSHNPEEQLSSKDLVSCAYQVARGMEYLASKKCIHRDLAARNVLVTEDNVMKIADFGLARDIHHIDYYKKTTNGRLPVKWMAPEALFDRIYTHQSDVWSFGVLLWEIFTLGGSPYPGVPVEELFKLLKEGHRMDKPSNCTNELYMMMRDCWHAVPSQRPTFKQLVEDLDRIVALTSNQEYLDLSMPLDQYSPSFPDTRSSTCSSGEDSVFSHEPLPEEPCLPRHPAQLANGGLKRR
Death-associated protein kinase 1 (Homo sapiens), sequence (P53355 whole entry, looked up, the tested form may be a part): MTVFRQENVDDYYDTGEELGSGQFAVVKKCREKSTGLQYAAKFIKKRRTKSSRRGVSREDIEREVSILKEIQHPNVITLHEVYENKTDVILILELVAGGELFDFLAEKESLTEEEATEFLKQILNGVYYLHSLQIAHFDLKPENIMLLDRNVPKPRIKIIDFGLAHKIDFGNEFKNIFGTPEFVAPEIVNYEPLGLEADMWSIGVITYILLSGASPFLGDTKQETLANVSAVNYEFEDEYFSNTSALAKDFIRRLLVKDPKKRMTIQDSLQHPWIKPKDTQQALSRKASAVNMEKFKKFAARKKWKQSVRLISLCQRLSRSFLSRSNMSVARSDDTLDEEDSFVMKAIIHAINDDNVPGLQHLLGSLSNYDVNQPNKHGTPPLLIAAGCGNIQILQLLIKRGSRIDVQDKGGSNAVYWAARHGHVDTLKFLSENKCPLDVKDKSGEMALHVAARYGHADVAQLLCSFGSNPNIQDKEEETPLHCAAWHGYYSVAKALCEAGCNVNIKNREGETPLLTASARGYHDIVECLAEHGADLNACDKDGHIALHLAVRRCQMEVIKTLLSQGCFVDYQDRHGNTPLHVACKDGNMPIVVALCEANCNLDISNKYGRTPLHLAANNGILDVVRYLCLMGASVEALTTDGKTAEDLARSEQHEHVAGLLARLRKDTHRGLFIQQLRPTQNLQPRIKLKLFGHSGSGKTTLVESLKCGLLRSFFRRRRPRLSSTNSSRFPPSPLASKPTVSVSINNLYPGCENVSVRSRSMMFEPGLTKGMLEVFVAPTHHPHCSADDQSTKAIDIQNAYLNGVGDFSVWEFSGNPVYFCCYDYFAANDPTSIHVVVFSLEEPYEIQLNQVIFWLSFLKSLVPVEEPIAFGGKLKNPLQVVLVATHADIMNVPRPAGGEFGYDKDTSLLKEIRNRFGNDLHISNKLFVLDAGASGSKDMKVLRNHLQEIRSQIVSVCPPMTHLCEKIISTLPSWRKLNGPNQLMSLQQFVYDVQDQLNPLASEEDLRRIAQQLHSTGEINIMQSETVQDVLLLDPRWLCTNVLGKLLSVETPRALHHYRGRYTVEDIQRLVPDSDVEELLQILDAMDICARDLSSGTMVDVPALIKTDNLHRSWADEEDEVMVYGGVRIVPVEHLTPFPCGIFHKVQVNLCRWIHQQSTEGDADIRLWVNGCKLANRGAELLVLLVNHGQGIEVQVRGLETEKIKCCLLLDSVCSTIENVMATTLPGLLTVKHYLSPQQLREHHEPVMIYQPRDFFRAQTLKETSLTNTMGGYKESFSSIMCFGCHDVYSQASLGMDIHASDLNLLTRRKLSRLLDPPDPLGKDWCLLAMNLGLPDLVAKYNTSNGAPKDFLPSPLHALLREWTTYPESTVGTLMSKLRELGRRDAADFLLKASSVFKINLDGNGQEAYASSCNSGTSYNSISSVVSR

Row | SMILES | inhibition [1] [%] | inhibition [2] [%] | inhibition [3] [%] | inhibition [4] [%] | inhibition [5] [%] | inhibition [6] [%] | inhibition [7] [%] | inhibition [8] [%] | inhibition [9] [%] | IC50 (Janus Kinase (JAK)) [nM]
1 | O=C(Nc1c[nH]nc1-c1cc(Cl)ccc1OC(F)F)c1cnn2cccnc12 | 32 | 20 | 19 | 14 | 5 | 1 | 1 | 1 | -1 | 5.2
2 | O=C(Nc1c[nH]nc1-c1cc2ccccc2cc1OC(F)F)c1cnn2cccnc12 | 11 | 24 | 22 | 20 | 6 | 8 | -6 | 5 | 1 | 6.4
3 | Cn1cc(NC(=O)c2cnn3cccnc23)c(-c2cc(Cl)ccc2OC(F)F)n1 | 10 | 13 | 11 | 15 | -1 | 4 | -1 | -3 | 6 | 4.7
